Measured values published in patent US20130165398A1, “CONCENTRATION-ENHANCING DRINK” (priority 2010, published 2013).
Values joined by “and” are separate entries in the source; they are usually repeats but may differ in a detail not shown here. Equal entries are not always repeated. “Also recorded” adds a separate entry of the source.

Columns and labels:
293mitoPARP cells [1] = assay: Cell viability by MTT assay, 293mitoPARP cells; type: cell-based, human; details: for cell survival with substance as extracellular precursor: NamPRT inhibited by FK866, FIG. 3A
Procedure: (§4) Inhibitors (2 μm FK866, 2 mM 3-AB, 10 μm NBTI, 2 μm dipyridamol, 2 mM CMP, 25 μm PPADS, 1 mM Ap4A) or metabolites (100 μM NAD^+, 100 μM NAAD, 100 μM NMN, 100 μM NAMN, 100 μM NA, 100 μM NR) were added to the cell culture medium as stated. […] The treatment with inhibitors and metabolites was carried out for 24-48 h before analysis of PAR formation and the viability of the cells (72 h for 293mitoPARP cells, 96 h for HeLa S3 cells and 120 h for HepG2 cells). The viability of the cells was determined by MTT assay.

HeLa S3 cells [2] = assay: Cell viability by MTT assay, HeLa S3 cells; type: cell-based, human; details: for cell survival with substance as extracellular precursor: FK866, FIG. 3B
Procedure: as §4

NMNAT1 = assay: Expression of NMNAT1 after adding EGCG to human cells; type: cell-based; details: EGCG added to human cells
[3] = Triple test method: biomedical test battery (breathing rate, skin conductance level, heart rate), index of physiological/mental stress; type: in vivo, human
Procedure: (§1) Hereinafter the present invention is tested in the context of the Viewpointsystem® vision analyses, using standardized methods of investigation of the Vienna test system and using biomedical studies for stress research. In this method, in the vision laboratory, the triple test method is used with extremely high accuracy for evaluating psychophysical effects up to the degree of attention (cf. EP 1 300 108 A1, WO 2008/151346 A1).
(§2) 12 subjects were subdivided into 3 groups each of 4 subjects:
(§3) (1) drink according to the invention (150 mg of EGCG/20 mg of NR in 10 ml of H2O; “energy” or “energy-drink” group (2) EGCG alone (150 mg of EGCG; “green tea” group) (3) placebo (H2O and mannitol; “placebo” group)
The subjects were then studied systematically with respect to possible effects using the triple test study method, that is vps vision analyses—Vienna test system—biomedical test battery, in a standardized study, in such a manner that objective, statistically significant statements were made possible on the detection of concentration-enhancing activity of the drink according to the invention.
In parallel thereto, the relevant biomedical characteristics such as skin conductivity, pulse were also detected and evaluated. In total, therefore, in the course of the triple-test studies, for all action-relevant evaluation situations, gaze studies were carried out in the gaze laboratory, the gaze behavior and reaction times were analyzed. The effects on information uptake, including information stress and fatigue, were documented using the standardized gaze methods by raster-analysis programs.
After a baseline measurement, the study follows, wherein, inter alia, the following values are recorded: • heart frequency (HF: number of heart beats/minute) • blood volume pulse (BVP: measure of amount of blood which is pumped through the body per heart beat) • skin conductance value (SCL: skin conductance level/conductivity level, tonic measure, SCR: skin conductance response/phasic measure; reaction to individual stimuli)
In the detailed analyses, at the same time the gaze and biomedical data of the study sequences [reaction test (singular stimuli), determination test (multiple optical, acoustic stimuli), film viewing (real sequences from driver viewpoint and film trailers) and semiotics (animal pictures and logos)] were evaluated. Particular attention was paid to the skin conductance level (SCL), the heart rate (pulse; HR) and the breathing rate (AF).
After the physiological parameters were determined, for each section the statistical parameters mean/standard deviation/min/max/range/85% percentile were determined. In addition, the trend line equations were calculated.
For further statistical detailed evaluation, the 85% percentile values were used and the relative differences were compiled using the before/after relationship. This change was totaled as a dimension number.
After categorization of the subjects into 3 comparison groups, the dimension numbers were summed and represent an index of the physiological/mental stress of the subjects. The lower the number, the “more relaxed” the solving of the tasks by the subjects.

[4] = Triple test method: synchronous gaze studies (Viewpointsystem vision analyses: gaze latencies, blinking, pupil adaptation); type: in vivo, human
Procedure: as §1, §2, §3
Using this test system, the changes in attention, vision behavior, reaction, activation and stress were determined in the three groups. In this process the real directions of gaze and gaze motions of subjects were determined in the course of the Vienna test system—in the reaction and determination test, and also in considering defined situation sequences (standardized preset image and film sequences with events) and for selected specific suitability tests—filmed and recorded from the respective field of view (cf. EP 1 300 108 A1, WO 2008/151346 A1). […]

293mitoPARP cells [5] = assay: Mitochondrial NAD+ content by mitoPARP PAR formation, 293mitoPARP cells; type: cell-based, human; details: NamPRT inhibited by FK866, FIG. 3A
Procedure: (§5) Inhibitors (2 μm FK866, 2 mM 3-AB, 10 μm NBTI, 2 μm dipyridamol, 2 mM CMP, 25 μm PPADS, 1 mM Ap4A) or metabolites (100 μM NAD^+, 100 μM NAAD, 100 μM NMN, 100 μM NAMN, 100 μM NA, 100 μM NR) were added to the cell culture medium as stated. […] The treatment with inhibitors and metabolites was carried out for 24-48 h before analysis of PAR formation and the viability of the cells (72 h for 293mitoPARP cells, 96 h for HeLa S3 cells and 120 h for HepG2 cells). The viability of the cells was determined by MTT assay. 293mitoPARP cells were prepared that express a fusion protein (“mitoPARP”), consisting of EGFP and PARP1cd (poly-ADP-ribose polymerase-1) which was targeted to the mitochondrial matrix. With mitochondrial NAD^+ as substrate, these cells generate protein-bound PAR (protein-bound poly-ADP ribose) constitutively, which is visualized immunochemically. Variations in the extent of the PAR detected thereby reflect changes in the mitochondrial NAD^+ content. Likewise, the transient expression of mitoPARP in HepG2 and HeLa S3 cells was used.

HepG2 cells = details: FK866, FIG. 3C
Procedure: Inhibitors (2 μm FK866, 2 mM 3-AB, 10 μm NBTI, 2 μm dipyridamol, 2 mM CMP, 25 μm PPADS, 1 mM Ap4A) or metabolites (100 μM NAD^+, 100 μM NAAD, 100 μM NMN, 100 μM NAMN, 100 μM NA, 100 μM NR) were added to the cell culture medium as stated. NR was prepared as described (Dölle et al., Anal, Biochem. 385 (2009), 377-379). The treatment with inhibitors and metabolites was carried out for 24-48 h before analysis of PAR formation and the viability of the cells (72 h for 293mitoPARP cells, 96 h for HeLa S3 cells and 120 h for HepG2 cells). The viability of the cells was determined by MTT assay.

mitochondrial NAD^+ = assay: Mitochondrial NAD+ content by mitoPARP PAR formation, cell line not stated; type: cell-based, human; details: for mitochondrial PAR formation from the extracellular precursor on overexpression of NRK1: FIG. 6; for effect of the inhibitor on NR usage: NR as extracellular precursor, FIG. 4B; for function of NMN as extracellular NAD+ precursor in presence of the inhibitor: plasma membrane nucleoside transporter inhibitor added
HeLa S3 cells [6] = assay: Mitochondrial NAD+ content by mitoPARP PAR formation, HeLa S3 cells; type: cell-based, human; details: FK866, FIG. 3B
Procedure: as §5

human cells = assay: Cell viability by MTT assay, cell line not stated; type: cell-based; details: NPP inhibitor added
[7] = CMP competes with NMN for external 5'-nucleotidase
[8] = semiotics (animal pictures and logos), group sum

Question: What does the source list for `Nc1ccn([C@@H]2O[C@H](COP(=O)(O)O)[C@@H](O)[C@H]2O)c(=O)n1` [CMP]?
Answer: cell viability with NMN as precursor on addition of CMP (293mitoPARP cells [1]; [7]): decreases the cell viability; cell viability with NMN as precursor on addition of CMP (HeLa S3 cells [2]; [7]): decreases the cell viability

Question: With `O=C(O[C@@H]1Cc2c(O)cc(O)cc2O[C@@H]1c1cc(O)c(O)c(O)c1)c1cc(O)c(O)c(O)c1` [EGCG, (2R,3R)-2-(3,4,5-trihydroxyphenyl)-3,4-dihydro-1(2H)-benzopyran-3,5,7-triol 3-(3,4,5-trihydroxybenzoate)] as the compound, how does the “increase of expression of NMNAT1” value (NMNAT1) read?
Answer: 40%

Question: What about the “AF (breathing rate) dimension number, Total” value ([3]; RT+DT+Film+Animals, group sum) of the same compound?
Answer: 14.21

Question: And the “HR (heart rate) dimension number, Total” value ([3]; RT+DT+Film+Animals, group sum)?
Answer: 13.90

Question: And the “SCL (skin conductance level) dimension number, Total” value ([3]; RT+DT+Film+Animals, group sum)?
Answer: 17.79

Question: What about the “dimension number TOTAL” value ([3]; T1+T2, individual subject, lower = more relaxed, listed as Green tea group) of the same compound?
Answer: 10.25 and 12.53 and 12.39 and 10.78

Question: What about the “dimension number TOTAL, group Mean” value ([3]; T1+T2, mean of 4 subjects) of the same compound?
Answer: 11.49

Question: And the “dimension number TOTAL, group Total” value ([3]; T1+T2, sum of 4 subjects)?
Answer: 45.95

Question: What about the “dimension number T1” value ([3]; T1: Vienna test system: reaction test/determination test, individual subject, summed relative before/after differences of 85% percentile values, lower = more relaxed, listed as Green tea group) of the same compound?
Answer: 4.81 and 5.51 and 6.86 and 5.11

Question: And the “dimension number T1, group Mean” value ([3]; T1: reaction test/determination test, mean of 4 subjects)?
Answer: 5.57

Question: And the “dimension number T1, group Total” value ([3]; T1: reaction test/determination test, sum of 4 subjects)?
Answer: 22.29

Question: What about the “dimension number T2” value ([3]; T2: Viewing film sequences/trailers/logos/animals, individual subject, lower = more relaxed, listed as Green tea group) of the same compound?
Answer: 5.45 and 7.02 and 5.53 and 5.67

Question: And the “dimension number T2, group Mean” value ([3]; T2: film sequences/trailers/logos/animals, mean of 4 subjects)?
Answer: 5.92

Question: What about the “dimension number T2, group Total” value ([3]; T2: film sequences/trailers/logos/animals, sum of 4 subjects) of the same compound?
Answer: 23.67

Question: And the “HR (heart rate) dimension number, DT” value ([3]; determination test, group sum)?
Answer: 3.44

Question: And the “SCL (skin conductance level) dimension number, DT” value ([3]; determination test, group sum)?
Answer: 4.17

Question: And the “AF (breathing rate) dimension number, DT” value ([3]; determination test, group sum, listed as Group 3)?
Answer: 3.63 and 3.67

Question: What about the “AF (breathing rate) dimension number, Film” value ([3]; film viewing, group sum) of the same compound?
Answer: 3.90

Question: What about the “HR (heart rate) dimension number, Film” value ([3]; film viewing, group sum) of the same compound?
Answer: 3.61

Question: What about the “SCL (skin conductance level) dimension number, Film” value ([3]; film viewing, group sum) of the same compound?
Answer: 4.90

Question: What about the “AF (breathing rate) dimension number, RT” value ([3]; reaction test, group sum) of the same compound?
Answer: 3.58

Question: What about the “HR (heart rate) dimension number, RT” value ([3]; reaction test, group sum) of the same compound?
Answer: 3.42

Question: And the “SCL (skin conductance level) dimension number, RT” value ([3]; reaction test, group sum)?
Answer: 4.05

Question: And the “AF (breathing rate) dimension number, Animals” value [3, 8]?
Answer: 3.10

Question: What about the “HR (heart rate) dimension number, Animals” value [3, 8] of the same compound?
Answer: 3.49

Question: And the “SCL (skin conductance level) dimension number, Animals” value [3, 8]?
Answer: 4.67

Question: What about the “performance ability for the problem solutions (ability to be stressed)” value ([3]; sum parameters, tendency, especially in the active test sequences) of the same compound?
Answer: higher performance ability

Question: And the number of blinks ([4]; all test methods, compared with Energy group)?
Answer: markedly lower

Question: And the “enhancement of gaze latencies in the after state” value ([4]; real film sequences, before/after)?
Answer: low enhancements

Question: With `O=C(/C=C/c1cccnc1)NCCCCC1CCN(C(=O)c2ccccc2)CC1` [FK866] as the compound, how does the “effect of FK866 on cell viability” value (293mitoPARP cells [1]; FIG. 3A) read?
Answer: cell death

Question: What about the “effect of FK866 on cell viability” value (HeLa S3 cells [2]; FIG. 3B) of the same compound?
Answer: cell death

Question: Which results are given for `O=C(O)c1cccnc1` [NA, nicotinic acid]?
Answer: cell survival with substance as extracellular precursor (293mitoPARP cells [1]): able to restore; cell survival with substance as extracellular precursor (HeLa S3 cells [2]): restoration of survival; mitochondrial NAD+ content/formation with substance as extracellular precursor (293mitoPARP cells [5]): able to restore; generation of mitochondrial NAD+ with substance as extracellular precursor (HepG2 cells): not able to provide support; survival/viability of the cell with substance as extracellular precursor (HepG2 cells): not able to provide support

Question: Which “mitochondrial PAR formation from the extracellular precursor on overexpression of NRK1” value (mitochondrial NAD^+) does the source give for `NC(=O)c1ccc[n+]([C@@H]2O[C@H](COP(=O)([O-])OP(=O)(O)OC[C@H]3O[C@@H](n4cnc5c(N)ncnc54)[C@H](O)[C@@H]3O)[C@@H](O)[C@H]2O)c1` [NAD^+, nicotinamide adenine dinucleotide] here?
Answer: considerably improved

Question: With `O=C(O)c1ccc[n+]([C@@H]2O[C@H](COP(=O)(O)O)[C@@H](O)[C@H]2O)c1` [NAMN, nicotinic acid mononucleotide] as the compound, how does the “cell survival with substance as extracellular precursor” value (“cell survival with substance” for short) (293mitoPARP cells [1]) read?
Answer: able to restore; also recorded: protect

Question: And the “cell survival with substance” value (HeLa S3 cells [2])?
Answer: restoration of survival; also recorded: protect

Question: What about the “mitochondrial NAD+ content/formation with substance as extracellular precursor” value (293mitoPARP cells [5]) of the same compound?
Answer: able to restore; also recorded: support mitochondrial NAD^+ formation

Question: And the “mitochondrial NAD+ generation of NAMN in presence of dipyridamol and NBTI” value (mitochondrial NAD^+; compared with NMN, FIG. 4A)?
Answer: sensitive to these inhibitors, although less strongly

Question: And the “mitochondrial NAD+ formation with substance as extracellular precursor” value (HeLa S3 cells [6])?
Answer: support mitochondrial NAD^+ formation

Question: For `O=[N+]([O-])c1ccc(CSc2ncnc3c2ncn3[C@@H]2O[C@H](CO)[C@@H](O)[C@H]2O)cc1` [NBTI], which “effect of the inhibitor on NR usage” value (mitochondrial NAD^+) is on record?
Answer: inhibit the NR usage

Question: And the “function of NMN as extracellular NAD+ precursor in presence of the inhibitor” value (mitochondrial NAD^+; FIG. 4A)?
Answer: lost its function

Question: For `NC(=O)c1ccc[n+]([C@@H]2O[C@H](COP(=O)([O-])O)[C@@H](O)[C@H]2O)c1` [NMN, nicotinamide mononucleotide], which “cell survival with substance” value (293mitoPARP cells [1]) is on record?
Answer: able to restore; also recorded: protect

Question: And the “cell survival with substance” value (HeLa S3 cells [2])?
Answer: restoration of survival; also recorded: protect

Question: What about the “mitochondrial NAD+ content/formation with substance as extracellular precursor” value (293mitoPARP cells [5]) of the same compound?
Answer: able to restore; also recorded: support mitochondrial NAD^+ formation

Question: And the “mitochondrial PAR formation from the extracellular precursor on overexpression of NRK1” value (mitochondrial NAD^+)?
Answer: dramatic increase

Question: What about the “mitochondrial NAD+ formation with substance as extracellular precursor” value (HeLa S3 cells [6]) of the same compound?
Answer: support mitochondrial NAD^+ formation

Question: For `Cc1nc(N=Nc2ccc(S(=O)(=O)O)cc2S(=O)(=O)O)c(COP(=O)(O)O)c(C=O)c1O` [PPADS], which “survival of the cell with NAD+ as extracellular precursor” value (human cells) is on record?
Answer: prevents the restoration

Question: What about the “restoration of the mitochondrial NAD+ pool with NAD+ as extracellular precursor” value (mitochondrial NAD^+; NPP inhibitor added, cell line not stated) of the same compound?
Answer: prevents the restoration

Question: For `OCCN(CCO)c1nc(N2CCCCC2)c2nc(N(CCO)CCO)nc(N3CCCCC3)c2n1` [dipyridamol], which “effect of the inhibitor on NR usage” value (mitochondrial NAD^+) is on record?
Answer: inhibit the NR usage

Question: And the “function of NMN as extracellular NAD+ precursor in presence of the inhibitor” value (mitochondrial NAD^+; FIG. 4A)?
Answer: lost its function
